For one series, the target named is T1, rat liver TrxR (Rattus norvegicus, UniProt O89049).
T1 sequence (O89049 1-499): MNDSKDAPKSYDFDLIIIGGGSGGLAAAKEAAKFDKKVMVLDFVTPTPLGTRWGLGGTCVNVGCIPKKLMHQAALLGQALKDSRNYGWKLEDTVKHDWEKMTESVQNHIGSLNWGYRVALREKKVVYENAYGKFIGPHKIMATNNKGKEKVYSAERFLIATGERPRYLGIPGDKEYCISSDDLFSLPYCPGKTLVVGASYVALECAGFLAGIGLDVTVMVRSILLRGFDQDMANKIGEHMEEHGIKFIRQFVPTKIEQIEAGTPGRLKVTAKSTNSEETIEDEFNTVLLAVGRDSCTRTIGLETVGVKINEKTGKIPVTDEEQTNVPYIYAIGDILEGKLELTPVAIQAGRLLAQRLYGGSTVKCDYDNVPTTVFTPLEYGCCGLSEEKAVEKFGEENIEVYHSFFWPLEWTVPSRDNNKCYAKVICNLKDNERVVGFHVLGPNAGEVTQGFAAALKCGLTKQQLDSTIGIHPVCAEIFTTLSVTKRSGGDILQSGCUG
The series is described as follows: Thioredoxin reductase inhibition, DTNB reduction assay.

In series [1] the test system is A2780 (ovarian carcinoma). The series is described as follows: MTT cytotoxicity assay, A2780. Conditions: read-out: EC50 A2780. On the technique in general: Tetrazolium assays rely on reduction of a dye to a coloured formazan, in cell work by metabolically active cells.
Experimental: (§1) Human ovarian carcinoma cells A2780 and A2780cisR, and human breast adenocarcinoma MDA-MB-231 cells, murine hepatocytes TAMH and human cardiomyocytes AC10 were obtained from ATCC. […] The stock of cisplatin was commercially available clinical grade solution in saline buffer.
(§2) Inhibition of cell viability assay. The cytotoxicity of the compounds was determined by colorimetric MTT assay. The cells were harvested from culture flasks by trypsinization and seeded into Cellstar 96-well microculture plates at the seeding density of 6000 cells per well (6×10^4 cells/mL). TAMH and AC10 cells were seeded at 12000 and 5000 cells per well, respectively. After cells were allowed to resume exponential growth for 24 hours, they were exposed to drugs at different concentrations in media for 72 hours. The drugs were diluted in complete medium at the desired concentration and added to each well (100 μL) and serially diluted to other wells. After exposure for 72 hours, the media was replaced with MTT in media (5 mg/mL, 100 μL) and incubated for additional 45 minutes. Subsequently, the medium was aspirated and the purple formazan crystals formed in viable cells were dissolved in DMSO (100 μL). Optical densities were measured at 570 nm using the BioTek H1 Synergy microplate reader. […] Evaluation was based on means from at least three independent experiments, each comprising six replicates per concentration level.
In series [2] the test system is MDA-MB-231 cells. Kind of series: Annexin V/PI apoptosis assay. The following applies: MDA-MB-231, 24 hours, equipotent concentrations.
Experimental: Annexin V/PI apoptosis assay. MDA-MB-231 cells were seeded into Cellstar 12-well plates (Greiner Bio-One) at a density of 20×10^4 cells/well (1 mL per well). […] After the supernatant solution was collected in 1.5 mL microtubes, the cells were washed with 100 μl of trypsin, which was combined with the supernatant. Subsequently, cells were trypsinized with 200 μl trypsin for 5 minutes at 37° C., 5% CO2, washed with 200 μl of PBS and combined with the supernatant. The cells were centrifuged at 2.5×10^3 rpm for 5 minutes and the pellets were washed once with PBS and resuspended in 500 μl of Annexin V binding buffer and stained with Annexin V-FITC and PI reagents. The fluorescence was immediately analyzed by flow cytometry. The resulting dot blots were acquired from 10000 events and quantified using Flowjo software (Flowjo LLC, Ashland, Oreg., USA).
MDA-MB-231 cells were treated with the compounds of interest at equipotent concentrations, corresponding to their IC50 values (FIG. 57).
The subject of series [3] is A2780cisR (ovarian carcinoma). Kind of series: MTT cytotoxicity assay, A2780cisR. Conditions: for RF (Resistance Factor): IC50 (A2780cisR)/IC50 (A2780); for EC50: read-out: EC50 A2780cisR.
Experimental: as §1, §2
Series [4] has as its system MDA-MB-231 (breast adenocarcinoma). The series is described as follows: MTT cytotoxicity assay, MDA-MB-231. Conditions: for EC50: read-out: EC50 MDA-MB-231.
Experimental: as §1, §2
In series [5] the test system is TAMH (transforming growth factor-a transgenic mouse hepatocytes). The series is described as follows: MTT toxicity assay in hepatocytes TAMH. Conditions: read-out: EC50 TAMH, exposure time 72 hours.
Experimental: (§3) Cell lines and culture conditions. Human ovarian carcinoma cells A2780 and A2780cisR, and human breast adenocarcinoma MDA-MB-231 cells, murine hepatocytes TAMH and human cardiomyocytes AC10 were obtained from ATCC.
Inhibition of cell viability assay. The cytotoxicity of the compounds was determined by colorimetric MTT assay. The cells were harvested from culture flasks by trypsinization and seeded into Cellstar 96-well microculture plates at the seeding density of 6000 cells per well (6×10^4 cells/mL). TAMH and AC10 cells were seeded at 12000 and 5000 cells per well, respectively. After cells were allowed to resume exponential growth for 24 hours, they were exposed to drugs at different concentrations in media for 72 hours. The drugs were diluted in complete medium at the desired concentration and added to each well (100 μL) and serially diluted to other wells. After exposure for 72 hours, the media was replaced with MTT in media (5 mg/mL, 100 μL) and incubated for additional 45 minutes. Subsequently, the medium was aspirated and the purple formazan crystals formed in viable cells were dissolved in DMSO (100 μL). Optical densities were measured at 570 nm using the BioTek H1 Synergy microplate reader. […] Evaluation was based on means from at least three independent experiments, each comprising six replicates per concentration level. […]
For series [6], the system named is AC10 (human ventricular cardiomyocytes). The series is described as follows: MTT toxicity assay in cardiomyocytes AC10.
Experimental: as §3
Inhibition of cell viability assay. The cytotoxicity of the compounds was determined by colorimetric MTT assay. The cells were harvested from culture flasks by trypsinization and seeded into Cellstar 96-well microculture plates at the seeding density of 6000 cells per well (6×10^4 cells/mL). TAMH and AC10 cells were seeded at 12000 and 5000 cells per well, respectively. After cells were allowed to resume exponential growth for 24 hours, they were exposed to drugs at different concentrations in media for 72 hours. The drugs were diluted in complete medium at the desired concentration and added to each well (100 μL) and serially diluted to other wells. After exposure for 72 hours, the media was replaced with MTT in media (5 mg/mL, 100 μL) and incubated for additional 45 minutes. Subsequently, the medium was aspirated and the purple formazan crystals formed in viable cells were dissolved in DMSO (100 μL). Optical densities were measured at 570 nm using the BioTek H1 Synergy microplate reader. […] Evaluation was based on means from at least three independent experiments, each comprising six replicates per concentration level. For experiments with inhibitors, MDA-MB-231 cells were seeded at the seeding density of 8000 cells per well (8×10^4 cells/mL).
Series [7] deals with MDA-MB-231 cells. Kind of series: Cellular accumulation of Au by ICP-MS. The following applies: ICP-MS after 24 hour exposure at 1.4 μM.
Experimental: Cellular accumulation of Au complexes was determined in MDA-MB-231 cells. Cells were seeded into Cellstar 6-well plates (Greiner Bio-one) at a density of 60×10^4 cells/well (2 mL per well). After the cells were allowed to resume exponential growth for 24 hours, they were exposed to compounds of interest at various concentrations for 24 hours at 37° C. The cells were washed twice with 1 mL of PBS and lysed with RIPA lysis buffer for 5-10 min at 4° C. The cell lysates were scraped from the wells and transferred to separate 1.5 mL microtubes. The supernatant was then collected after centrifugation (13000 rpm, 4° C. for 15 minutes) and total protein content of each sample was quantified via Bradford's assay. […] The resulting solution was diluted to 1 mL (2-4% v/v HNO3) with ultrapure Milli-Q water. Au content of each sample was quantified by ICP-MS. Re was used as an internal standard. […] Metal standards for calibration curve (0, 0.5, 1, 2, 5, 10, 20, 40 ppb) were freshly prepared before each measurement. All readings were made in triplicates in He mode.
The nature of series [8]: Reactivity towards glutathione, ligand release (HR-MS, UV-vis). The series is classed as physicochemical. The following applies: with GSH; HR-MS and UV-vis. The text has this:
NMR- and MS-based stability studies.
Intriguingly, the reactivity of Au^III-metformin complexes towards GSH was drastically different despite their similar structures.

Series [9] is described as follows: Stability in ammonium carbonate buffer by high resolution ESI-MS. Conditions: ammonium carbonate buffer pH 7.4, 37° C., 1, 3 and 24 hours.
Experimental: NMR and mass spectrometric (MS) methods were employed to characterize the stability of Au complexes in DMSO and aqueous media. ^1H NMR stability studies were performed over the period of 6-10 days in d^6-DMSO and D2O (1met*).
Series [10] relates to MDA-MB-231 (breast adenocarcinoma).
Experimental: as §1, §2
In another series the test system is MDA-MB-231 tumors. Conditions: 250 mg/kg; cited from earlier work.
Series [11] concerns AMPK-mTOR energy signaling pathway. Conditions: MDA-MB-231, 0.5×-2×EC50, 2, 6, 24 hours.
Experimental: Western blotting. MDA-MB-231 cells were seeded into Cellstar 6-well plates (Greiner Bio-One) at a density of 60×10^4 cells/well (2 mL per well). After the cells were allowed to resume exponential growth for 24 hours, they were exposed to compounds of interest at various concentrations for 2, 6 and 24 hours. The cells were washed twice with PBS and lysed with RIPA buffer (50-100 μL) and kept for 5-10 minutes at 4° C. The samples were sonicated in ice bath (3 times for 30 seconds). […] Equal quantities of protein (50 μg) were reconstituted in loading buffer (5× Laemmli Buffer with 5% DTT) and heated at 100° C. for 10 minutes. […] The protein bands were visualised with Ponceau S stain solution and the nitrocellulose membranes were cut into strips based on the protein ladder. The membranes were washed with a TBS-T wash buffer (0.1% Tween-20 in 1×PBS) 3 times for 5 minutes. Subsequently, they were blocked in 5% BSA (w/v) in wash buffer for 1 hour and incubated with the appropriate primary antibodies in 5% BSA (w/v) in wash buffer at 4° C. overnight. The membranes were washed with a wash buffer 3 times for 7 minutes. […] Immune complexes were detected with Luminata HRP substrates and analysed using enhanced chemiluminescence imaging. […]
The mark [12] stands for this setting: MTT assay, exposure time 72 hours.

Entries after “also recorded” stand apart in the source; their conditions may differ. Like-named read-outs stand apart in the source and are kept apart here.

Experimental for Cyclic voltammetry: Cyclic voltammetry and spectroelectrochemistry. Cyclic voltammetry experiments with approximately 0.5 mM solutions of investigated gold complexes in 0.1 M nBu4NPF6 supporting electrolyte in dimethylsulphoxide (DMSO) or in pH 7 buffered solutions were performed under argon atmosphere using a three-electrode arrangement with glassy carbon 1 mm disc working electrode (from lonode, Australia), platinum wire as counter electrode, and silver wire as pseudo-reference electrode. Ferrocene (Fc) served as the internal potential standard for DMSO and potassium hexacyanoferrate(II) for aqueous solutions. […] The cell was positioned in the CUV-UV Cuvette Holder (Ocean Optics) connected to the diode-array UV-vis-NIR spectrometer by optical fibres. UV-vis-NIR spectra were processed using the AvaSoft 7.7 software package. Halogen and deuterium lamps were used as light sources (Avantes, Model AvaLight-DH-S-BAL).
Experimental for rat liver TrxR: Thioredoxin reductase inhibition assay. Assay was performed according to the protocol provided by the manufacturer. […] Compounds of interest were serially diluted at the separate 96-well plate and 4 μl of each concentration was added to the appropriate wells. The reaction mixture was incubated with gentle shaking (room temperature, 30 minutes). Subsequently, 6 μl of DNTB (100 mM) was added and incubated for an additional 3 minutes.
Compounds of interest at six different concentrations were incubated with the isolated rat liver TrxR enzyme in the presence of NADPH for 30 minutes, followed by 2 minutes incubation with the DNTB reagent.

What is called IC50 is the concentration at which inhibition is half-maximal. At rat liver TrxR, `CN(C)C1=[NH+][Au-]2([NH]C(N)=N1)[c]1ccccc1-c1cccc[n+]12` (centres unmarked) [1met*] returned an IC50 of 0.0012 ± 0.0005 µM.
For orientation: EC50 means the concentration that produces a half-maximal response. Regarding `N.N.[Cl][Pt][Cl]` [Cisplatin], the EC50 in [1] (setting [12]) was 0.6 ± 0.05 µM; in [3] (setting [12]), 11 ± 2 µM; in series [4] (setting [12]), 27 ± 8 µM; in series [5], 52 ± 7 µM; in [6] (read-out: EC50 AC10, MTT assay, exposure time 72 hours) it was 10 ± 2 µM. Further, in the series with MDA-MB-231 cells [2], the apoptotic cell population entry is “markedly lower”. Further, the “RF (Resistance Factor)” value in series [3] was found to be 18.
As to `[Cl][Au-]1([Cl])[c]2ccccc2-c2cccc[n+]21` [Compound 1, (2-phenylpyridine)AuCl2], the EC50 in series [1] (setting [12]) came out at 2 ± 0.4 µM; in series [3] (setting [12]), 4 ± 0.8 µM; in series [4] (setting [12]), 7.8 ± 1.7 µM. Besides, the apoptotic cell population entry in the series on MDA-MB-231 cells [2] is recorded as “significantly higher”. In addition, the “RF (Resistance Factor)” value in series [3] is 2. Moreover, in the series with MDA-MB-231 cells [7], the “Cellular accumulation MDA-MB-231” value is on record as 0.36 ± 0.10 nmol Au/mg protein.
Turning to `NC1=NC(NCCc2ccccc2)=[NH+][Au-]2([NH]1)[c]1ccccc1-c1cccc[n+]12` (centres unmarked) [Compound 1phen], the “reactivity towards GSH / ligand release in words” value in [8] is listed as “release of phenformin was detected; also recorded: Only the peak at m/z 206.1622, which corresponds to free phenformin, was observed”. Also, in the series with MDA-MB-231 cells [2], the apoptotic cell population entry was “no changes in apoptotic population”. Besides, the cytotoxicity in words result in series [4] (tested cancer cell lines, MTT 72 h) is recorded as “least cytotoxic representative of this series”. At rat liver TrxR, this compound showed a half-maximal inhibitory concentration (IC50) of 0.0031 ± 0.0015 µM. The “stability, detection of molecular ion [M]+” value in series [9] is on record as “not detected after 1 hour incubation”.
With `[Cl][Au-]1([Cl])[c]2ccccc2Cc2cccc[n+]21` [Compound 2, (2-benzylpyridine)Au^IIICl2], the EC50 turned out to be 6.5 ± 0.8 µM in [1] (setting [12]), 7.2 ± 1.5 µM in series [3] (setting [12]) and 7.1 ± 0.4 µM in series [4] (setting [12]). Besides, the “RF (Resistance Factor)” value in series [3] was found to be 1. Also, the “Cellular accumulation MDA-MB-231” value in the series with MDA-MB-231 cells [7] came to 0.14 ± 0.03 nmol Au/mg protein.
As to `CN(C)C1=[NH+][Au-]2([NH]C(N)=N1)[c]1ccccc1Cc1cccc[n+]12` (centres unmarked) [Compound 2met], in [8], the “reactivity towards GSH / ligand release in words” value is “stable both in the absence and presence of GSH; also recorded: did not significantly change over time”. At rat liver TrxR, the IC50 is 0.00055 ± 9e-05 µM. In addition, in [9], the “stability, detection of molecular ion [M]+” value is on record as “stable for 24 hours”.
In the case of `O=C1c2cccc[c]2[Au-]([Cl])([Cl])[n+]2ccccc21` [Compound 3, (2-benzoylpyridine)Au^IIICl2], the EC50 in series [1] (setting [12]) worked out at 8.6 ± 1.7 µM; in [3] (setting [12]) it was 9.1 ± 2.9 µM; in series [4] (setting [12]), 19 ± 3 µM. Further, the “RF (Resistance Factor)” value in [3] was 1. Further, in the series with MDA-MB-231 cells [7], the “Cellular accumulation MDA-MB-231” value stood at 0.14 ± 0.05 nmol Au/mg protein.
Take `CN(C)C(=N)N=C(N)N` [Metformin]: the cytotoxicity in words entry in series [10] is listed as “devoid of cytotoxicity”. The “anticancer effects in an MDA-MB-231 mammary fat model” value in the series on MDA-MB-231 tumors is “negligible”. Also, the “redox activity in words” value in “Cyclic voltammetry” was “did not show any redox activity”. For the same compound, the EC50 in [1] (Homo sapiens, A2780, 72 h) was over 1000 µM; in series [3] (Homo sapiens, A2780cisR, 72 h), over 1000 µM; in [4] (Homo sapiens, MDA-MB-231, 72 h), over 1000 µM. The apoptotic cell population result in the series with MDA-MB-231 cells [2] is given as “markedly lower”.
Take `[H]/N=C(/N)N/C(=N/[H])NCCc1ccccc1` [Phenformin]: the EC50 turned out to be 104 ± 21 µM in series [1] (Homo sapiens, A2780, 72 h); 246 ± 24 µM in [3] (Homo sapiens, A2780cisR, 72 h); 608 ± 23 µM in series [4] (Homo sapiens, MDA-MB-231, 72 h).
Turning to `COc1cccc2c1C(=O)c1c(O)c3c(c(O)c1C2=O)C[C@@](O)(C(=O)CO)C[C@@H]3O[C@H]1C[C@H](N)[C@H](O)[C@H](C)O1` [doxorubicin], the IC50 in series [6] (read-out: IC50 value in AC10 cells (heart toxicity)) worked out at 2.3 ± 0.2 µM.
Consider “[Au^III(2-phenylpyridine)(metformin)]PF6 [Compound 1met]”, for which, in series [11], the “AMPK and mTOR phosphorylation” value was “dose-dependent increase of AMPK phosphorylation and decrease of mTOR phosphorylation”.

Values taken from US20230106519A1, “GOLD(III)-BIGUANIDE PRODRUGS, METHODS OF PREPARATION AND USES THEREOF” (National University of Singapore, priority 2020, published 2023).
